Like-named read-outs stand apart in the source and are kept apart here.
Legend:
[1] = molecular target: T1, CCR1 (Homo sapiens, UniProt P32246); test: Live cell NanoBRET binding assay, HEK293T cells expressing CCR1_Nluc; set-up: Promega pNLF1-C (Nluc) #CCR010TN00; host or cells: HEK293T, transient (PEI); details: for Ki: 12 (1000 nM), live HEK293T cells
T1 sequence (P32246 1-355): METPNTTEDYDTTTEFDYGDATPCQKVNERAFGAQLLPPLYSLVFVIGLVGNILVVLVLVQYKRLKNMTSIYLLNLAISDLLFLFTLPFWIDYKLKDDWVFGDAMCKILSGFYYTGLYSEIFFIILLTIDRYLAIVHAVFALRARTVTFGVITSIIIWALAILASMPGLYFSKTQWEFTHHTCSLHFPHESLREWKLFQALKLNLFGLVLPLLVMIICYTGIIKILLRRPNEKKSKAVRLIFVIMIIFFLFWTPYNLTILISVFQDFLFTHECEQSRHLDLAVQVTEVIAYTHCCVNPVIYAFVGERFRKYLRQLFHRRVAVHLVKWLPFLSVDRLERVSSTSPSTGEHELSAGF

[2] = molecular target: T1, CCR1; test: Membrane-based NanoBRET saturation binding assay, CCR1_Nluc membranes from HEK293T cells; set-up: Promega pNLF1-C (Nluc) #CCR010TN00; host or cells: HEK293T, transient (PEI); details: saturation binding of fluorescent ligand, read-out: KD (equilibrium, KD(eq.))
Source text: To evaluate the CCR1 affinity of previously reported (8–9) and new fluorescently labeled pyrrolones (11–12), we developed a NanoBRET-based binding assay (Figures 4A–H and S2A–J). To this end, we used a previously reported CCR1 construct (hereafter referred to as CCR1_Nluc) with a small and bright luciferase variant (nanoluciferase,[52] Nluc), fused to the intracellular C-terminus of CCR1 (Figures 4A and S2A).[47] […] This was expected, given the very low CCR2/CCR1 selectivity of the parental ligands 4 and 5 (Figure 1).[33] For further studies, we selected 12 due to its highest CCR1 affinity.
Cell culture: HEK293T cells were cultured as previously described.8 In brief, HEK293T cells (gift from Chair of Physiology, Prof. Dr. Alzheimer, FAU Erlangen-Nürnberg) were grown on 10 cm culture dishes at 37 °C and 5% CO2. As growth medium, Dulbecco's Modified Eagle Medium (DMEM)/F12 (Invitrogen) supplemented with 10% fetal bovine serum (FBS, Gibco™ Fetal Bovine Serum, qualified, Brazil), L-glutamine (final concentration: 2 mM; from Gibco™ L-glutamine 200 mM, 100X), penicillin (final concentration: 100 units/mL), and streptomycin (final concentration: 100 µg/mL; from Gibco™ Penicillin-Streptomycin 10,000 U/mL) was used. Cells were split every three to four days and regularly confirmed to be free of mycoplasma contamination using the luminescence-based MycoAlert Plus Kit (Lonza).
Transient transfection using polyethylenimine: For transfection, we used a previously published procedure.8 In brief, HEK293T cells were plated onto culture dishes (Ø 10 cm or Ø 15 cm) and grown to a confluence of approximately 50% at 37 °C and 5% CO2. The growth medium was renewed one-hour before transfection. The transfection mix was prepared, as described in the following. Solution A (0.4-2.2% total DNA (1-5.5 µg) in Gibco™ phosphate buffered saline, pH 7.4) and solution B (3% PEI (linear, 25 kDa, from Polysciences) solution prepared from a PEI stock solution (0.4 µg/µL) in PBS without MgCl2 and CaCl2) were mixed one to one, the resulting mixture was vortexed for 5 s and incubated for 30 min at room temperature. The pre-incubated transfection mix was added dropwise to the cells and cell cultivation was continued […]
Membrane preparation: Membranes were prepared as previously reported.8 In brief, membranes from HEK293T cells transiently expressing the respective GPCR were prepared as follows. The medium of the transfected cells was refreshed after 24 h before cells were harvested 48 h post-transfection. […]
Finally, the protein concentration was determined using the Lowry method.9 cDNA constructs: The CCR1-Nluc fusion construct (CCR1_Nluc) in pcDNA3.1 was generated as previously reported1 using the Gibson Assembly10 (New England Biolabs) method. […]

| Ki ([1]; read-out: Ki, live cells) | Ki ([1]; read-out: pKi ± SEM, live cells (converted)) | Kd [2] | Kd ([1]; live HEK293T cells expressing CCR1_Nluc) | Structure (SMILES) |
| --- | --- | --- | --- | --- |
| 235 nM | 229 nM |  |  | O=C(C1=C(O)C(=O)N(CCc2ccc(O)cc2)C1c1ccc(F)cc1)c1ccccc1 (racemic) [compound 23] |
| 24.2 nM |  |  |  | CC(=O)C1=C(O)C(=O)N(c2ccc(Br)cc2F)C1C1CCCCC1 (stereo not drawn) [compound 5, reference compound] |
|  |  | 3170 ± 370 nM |  | CN(C)c1ccc2c(-c3cc(C(=O)NCCOCCOCc4cn(CCCC(=O)C5=C(O)C(=O)N(c6ccc(Cl)cc6F)C5C5CCCCC5)nn4)ccc3C(=O)[O-])c3ccc(=[N+](C)C)cc-3oc2c1 (stereo not drawn) [compound 11] |
|  |  | 1900 ± 180 nM | 505 ± 93 nM | CN(C)c1ccc2c(-c3cc(C(=O)NCCOCCOCc4cn(CCCC(=O)C5=C(O)C(=O)N(c6ccc(Br)cc6F)C5C5CCCCC5)nn4)ccc3C(=O)[O-])c3ccc(=[N+](C)C)cc-3oc2c1 (stereo not drawn) [compound 12] |

— article PMC11249626, “Fluorophore-Labeled Pyrrolones Targeting the Intracellular Allosteric Binding Site of the Chemokine Receptor CCR1” (ACS Pharmacology & Translational Science, 2024)
